Test results taken from PubChem BioAssay (NCI).
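Test compounds were applied to cells in 96-well plates for 48 hours at 5 doses. GI50 marks 50% less growth. At the TGI there is no net growth.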

Tested on: SN12C renal
Experiment: NCI anticancer screen, dose series, 48 h

Compound `O=C(c1ccc(Cl)cc1)N(C(=O)N1CCC(c2ccccc2)CC1)c1ccccc1` has a TGI of over 100 µM.

Tested on: NCI-H460 lung
Experiment: NCI anticancer screen, dose series, 48 h

`COc1ccc2c3c1O[C@H]1C(OC)C=CC4C(C2)N(Cc2cccs2)CCC341` (stereo partly specified) and `COc1ccc(-n2c(=O)[nH]n(C(C)=O)c2=O)cc1` cannot be ordered by TGI: over 100 µM for the first, over 100 µM for the second.

`Nc1nc(SCCc2ccccc2)nc2nc3c(c(-c4ccccc4)c12)CCCC3` and `O=c1[nH]nc(NNc2ccccc2)c2nnn(C3CCCCC3)c12` cannot be ordered by TGI: over 100 µM for the first, over 100 µM for the second.

First: C=CCOC(=O)NC1C(OC(C)[C@@H](NC(=O)OCc2ccccc2)C(=O)OC(C)(C)C)OC(COC(C)=O)C(OC(C)=O)C1OC(C)=O (stereo partly specified)
Second: C=C1/C(=C\C=C2/CCC[C@]3(C)[C@@H]([C@H](C)CCCC(C)(C)O)CC[C@@H]23)C[C@@H](OC(=O)CBr)C[C@@H]1O
The TGI of the first is higher: over 100 µM for the first, 28 µM for the second.

Work on `C=C1/C(=C\C=C2/CCC[C@]3(C)[C@@H]([C@H](C)CCCC(C)(C)O)CC[C@@H]23)C[C@@H](OC(=O)CBr)C[C@@H]1O` yielded a GI50 of 12 µM.

Tested on: SK-MEL-28 melanoma
Experiment: NCI anticancer screen, dose series, 48 h

`Nc1nc(SCCc2ccccc2)nc2nc3c(c(-c4ccccc4)c12)CCCC3` and `O=C(c1ccc(Cl)cc1)N(C(=O)N1CCC(c2ccccc2)CC1)c1ccccc1` cannot be ordered by TGI: over 100 µM for the first, over 100 µM for the second.

Going from `C=CCOC(=O)NC1C(OC(C)[C@@H](NC(=O)OCc2ccccc2)C(=O)OC(C)(C)C)OC(COC(C)=O)C(OC(C)=O)C1OC(C)=O` (stereo partly specified) to `C=C1/C(=C\C=C2/CCC[C@]3(C)[C@@H]([C@H](C)CCCC(C)(C)O)CC[C@@H]23)C[C@@H](OC(=O)CBr)C[C@@H]1O`, the TGI falls from over 100 µM to 10.9 µM.

`O=c1[nH]nc(NNc2ccccc2)c2nnn(C3CCCCC3)c12` and `COc1ccc(-n2c(=O)[nH]n(C(C)=O)c2=O)cc1` cannot be ordered by TGI: over 100 µM for the first, over 100 µM for the second.

With `C=C1/C(=C\C=C2/CCC[C@]3(C)[C@@H]([C@H](C)CCCC(C)(C)O)CC[C@@H]23)C[C@@H](OC(=O)CBr)C[C@@H]1O` the GI50 was 4.95 µM.

Tested on: T-47D breast
Experiment: NCI anticancer screen, dose series, 48 h

Going from `Nc1nc(SCCc2ccccc2)nc2nc3c(c(-c4ccccc4)c12)CCCC3` to `O=C(c1ccc(Cl)cc1)N(C(=O)N1CCC(c2ccccc2)CC1)c1ccccc1`, the TGI falls from over 100 µM to 49.3 µM.

Compound `C=C1/C(=C\C=C2/CCC[C@]3(C)[C@@H]([C@H](C)CCCC(C)(C)O)CC[C@@H]23)C[C@@H](OC(=O)CBr)C[C@@H]1O` has a TGI of 19.3 µM.

In the case of `C=C1/C(=C\C=C2/CCC[C@]3(C)[C@@H]([C@H](C)CCCC(C)(C)O)CC[C@@H]23)C[C@@H](OC(=O)CBr)C[C@@H]1O`, the GI50 is reported as 2.71 µM.

Tested on: MALME-3M melanoma
Experiment: NCI anticancer screen, dose series, 48 h

`COc1ccc2c3c1O[C@H]1C(OC)C=CC4C(C2)N(Cc2cccs2)CCC341` (stereo partly specified) and `COc1ccc(-n2c(=O)[nH]n(C(C)=O)c2=O)cc1` cannot be ordered by TGI: over 100 µM for the first, over 100 µM for the second.

Going from `Nc1nc(SCCc2ccccc2)nc2nc3c(c(-c4ccccc4)c12)CCCC3` to `O=C(c1ccc(Cl)cc1)N(C(=O)N1CCC(c2ccccc2)CC1)c1ccccc1`, the TGI falls from over 100 µM to 84.6 µM.

Compared with `C=CCOC(=O)NC1C(OC(C)[C@@H](NC(=O)OCc2ccccc2)C(=O)OC(C)(C)C)OC(COC(C)=O)C(OC(C)=O)C1OC(C)=O` (stereo partly specified), `C=C1/C(=C\C=C2/CCC[C@]3(C)[C@@H]([C@H](C)CCCC(C)(C)O)CC[C@@H]23)C[C@@H](OC(=O)CBr)C[C@@H]1O` is lower in TGI: over 100 µM for the first, 0.674 µM for the second.

In the case of `O=c1[nH]nc(NNc2ccccc2)c2nnn(C3CCCCC3)c12`, the TGI is reported as over 100 µM.

In the case of `C=C1/C(=C\C=C2/CCC[C@]3(C)[C@@H]([C@H](C)CCCC(C)(C)O)CC[C@@H]23)C[C@@H](OC(=O)CBr)C[C@@H]1O`, the GI50 is reported as 0.184 µM.

Tested on: SNB-75 CNS
Experiment: NCI anticancer screen, dose series, 48 h

Compared with `Nc1nc(SCCc2ccccc2)nc2nc3c(c(-c4ccccc4)c12)CCCC3`, `O=C(c1ccc(Cl)cc1)N(C(=O)N1CCC(c2ccccc2)CC1)c1ccccc1` is 9-fold lower in TGI: 83.7 µM for the first, 9.27 µM for the second.

Compared with `C=CCOC(=O)NC1C(OC(C)[C@@H](NC(=O)OCc2ccccc2)C(=O)OC(C)(C)C)OC(COC(C)=O)C(OC(C)=O)C1OC(C)=O` (stereo partly specified), `C=C1/C(=C\C=C2/CCC[C@]3(C)[C@@H]([C@H](C)CCCC(C)(C)O)CC[C@@H]23)C[C@@H](OC(=O)CBr)C[C@@H]1O` is 87-fold lower in TGI: 9.46 µM for the first, 0.109 µM for the second.

`COc1ccc(-n2c(=O)[nH]n(C(C)=O)c2=O)cc1` showed a TGI of over 100 µM.

Compound `C=C1/C(=C\C=C2/CCC[C@]3(C)[C@@H]([C@H](C)CCCC(C)(C)O)CC[C@@H]23)C[C@@H](OC(=O)CBr)C[C@@H]1O` has a GI50 of under 0.0116 µM.

Tested on: SF-268 CNS
Experiment: NCI anticancer screen, dose series, 48 h

`COc1ccc2c3c1O[C@H]1C(OC)C=CC4C(C2)N(Cc2cccs2)CCC341` (stereo partly specified) and `COc1ccc(-n2c(=O)[nH]n(C(C)=O)c2=O)cc1` cannot be ordered by TGI: over 100 µM for the first, over 100 µM for the second.

`Nc1nc(SCCc2ccccc2)nc2nc3c(c(-c4ccccc4)c12)CCCC3` and `O=C(c1ccc(Cl)cc1)N(C(=O)N1CCC(c2ccccc2)CC1)c1ccccc1` cannot be ordered by TGI: over 100 µM for the first, over 100 µM for the second.

Compared with `C=CCOC(=O)NC1C(OC(C)[C@@H](NC(=O)OCc2ccccc2)C(=O)OC(C)(C)C)OC(COC(C)=O)C(OC(C)=O)C1OC(C)=O` (stereo partly specified), `C=C1/C(=C\C=C2/CCC[C@]3(C)[C@@H]([C@H](C)CCCC(C)(C)O)CC[C@@H]23)C[C@@H](OC(=O)CBr)C[C@@H]1O` is lower in TGI: over 100 µM for the first, 6.1 µM for the second.

`C=C1/C(=C\C=C2/CCC[C@]3(C)[C@@H]([C@H](C)CCCC(C)(C)O)CC[C@@H]23)C[C@@H](OC(=O)CBr)C[C@@H]1O` gave a GI50 of 2.26 µM.

Tested on: UACC-257 melanoma
Experiment: NCI anticancer screen, dose series, 48 h

`COc1ccc2c3c1O[C@H]1C(OC)C=CC4C(C2)N(Cc2cccs2)CCC341` (stereo partly specified) and `COc1ccc(-n2c(=O)[nH]n(C(C)=O)c2=O)cc1` cannot be ordered by TGI: over 100 µM for the first, over 100 µM for the second.

Going from `Nc1nc(SCCc2ccccc2)nc2nc3c(c(-c4ccccc4)c12)CCCC3` to `O=C(c1ccc(Cl)cc1)N(C(=O)N1CCC(c2ccccc2)CC1)c1ccccc1`, the TGI falls from over 100 µM to 83 µM.

Compared with `C=CCOC(=O)NC1C(OC(C)[C@@H](NC(=O)OCc2ccccc2)C(=O)OC(C)(C)C)OC(COC(C)=O)C(OC(C)=O)C1OC(C)=O` (stereo partly specified), `C=C1/C(=C\C=C2/CCC[C@]3(C)[C@@H]([C@H](C)CCCC(C)(C)O)CC[C@@H]23)C[C@@H](OC(=O)CBr)C[C@@H]1O` is lower in TGI: over 100 µM for the first, 26.8 µM for the second.

With `O=c1[nH]nc(NNc2ccccc2)c2nnn(C3CCCCC3)c12` the TGI was over 100 µM.

In the case of `C=C1/C(=C\C=C2/CCC[C@]3(C)[C@@H]([C@H](C)CCCC(C)(C)O)CC[C@@H]23)C[C@@H](OC(=O)CBr)C[C@@H]1O`, the GI50 is reported as 9.84 µM.

Tested on: UO-31 renal
Experiment: NCI anticancer screen, dose series, 48 h

`COc1ccc2c3c1O[C@H]1C(OC)C=CC4C(C2)N(Cc2cccs2)CCC341` (stereo partly specified) and `Nc1nc(SCCc2ccccc2)nc2nc3c(c(-c4ccccc4)c12)CCCC3` cannot be ordered by TGI: over 100 µM for the first, over 100 µM for the second.

`C=CCOC(=O)NC1C(OC(C)[C@@H](NC(=O)OCc2ccccc2)C(=O)OC(C)(C)C)OC(COC(C)=O)C(OC(C)=O)C1OC(C)=O` (stereo partly specified) was tested, and the TGI was 47.3 µM.
